According to article PMC8328003 (ACS chemical neuroscience, 2021):
“And” between values parts separate entries of the source, which are not always exact repeats. Identical values can stand only once. Like-named read-outs stand apart in the source and are kept apart here.

Key:
mDOR [1] = target: T1, mDOR (Mus musculus, UniProt P32300); assay: [35S]GTPγS functional assay, CHO membranes; format: biochemical; conditions: for mDOR Emax: relative to DPDPE at 1000 nM
hKOR [2] = target: T2, hKOR (Homo sapiens, UniProt P41145); assay: BRET βarrestin-2 recruitment, HEK293T cells; format: cell-based; conditions: for pEC50 ± SEM βarrestin-2 recruitment hKOR / EC50: BRET; for EC50: read-out: EC50 βarrestin-2 recruitment hKOR
mMOR = mMOR (Mus musculus, UniProt P42866); assay: [35S]GTPγS functional assay, CHO membranes; format: biochemical; conditions: for mMOR Emax: relative to DAMGO at 1000 nM
C57BL/6J mice [3] = assay: 55 °C warm-water tail-withdrawal assay; format: in vivo, mouse; conditions: for antinociception ED50 (and 95% C.I.): WT C57BL/6J mice, from peak effect
[4] = target: mouse mu opioid receptor (mMOR) (Mus musculus, UniProt P42866); assay: Competition binding against 125I-IBNtxA, CHO cell membranes; conditions: for Ki: 125I-IBNtxA (0.1 nM), CHO membranes
[5] = target: human mu opioid receptor (hMOR) (Homo sapiens, UniProt P35372); assay: cell-based; format: cell-based
hNMDA = assay: NIMH-PDSP radioligand binding; set-up: species or system human; conditions: read-out: affinity Ki hNMDA
MOR = conditions: ex vivo; cited from earlier work
hDOR [6] = target: T3, hDOR (Homo sapiens, UniProt P41143); assay: BRET βarrestin-2 recruitment, HEK293T cells; format: cell-based; conditions: for Emax% ± SEM βarrestin-2 recruitment hDOR: normalized to DPDPE
hDOR [7] = target: T3, hDOR; assay: BRET Gi-1 activation, HEK293T cells; format: cell-based; conditions: for Emax% ± SEM Gi-1 activation hDOR: normalized to control agonist (DPDPE; SNC80 in Figure 6G)
hMOR [8] = target: T4, hMOR (Homo sapiens, UniProt P35372); assay: BRET βarrestin-2 recruitment, HEK293T cells; format: cell-based
[9] = target: human kappa opioid receptor (hKOR) (Homo sapiens, UniProt P41145); assay: BRET Gi-1 activation, HEK293T cells; format: cell-based; conditions: for pEC50 ± SEM Gi-1 activation hKOR / EC50: BRET; for EC50: read-out: EC50 Gi-1 activation hKOR
mKOR = mKOR (Mus musculus, UniProt P33534); assay: [35S]GTPγS functional assay, CHO membranes; format: biochemical; conditions: for mKOR Emax: relative to U50,488H at 1000 nM
hKOR [10] = target: T2, hKOR; assay: NIMH-PDSP radioligand binding; conditions: read-out: affinity Ki hKOR
C57BL/6J mice [11] = assay: CLAMS breathing rate; format: in vivo, mouse; conditions: 100 nmol, i.c.v., 180 min, versus vehicle
hNET = hNET (Homo sapiens, UniProt P23975); assay: NIMH-PDSP radioligand binding; conditions: read-out: affinity Ki hNET
C57BL/6J mice [12] = assay: CLAMS locomotor activity; format: in vivo, mouse; conditions: 100 nmol, i.c.v., 180 min, versus vehicle
hα2A = target: T5, hα2A (Homo sapiens, UniProt P08913); assay: NIMH-PDSP radioligand binding; conditions: read-out: affinity Ki hα2A
T5 sequence (P08913 1-465): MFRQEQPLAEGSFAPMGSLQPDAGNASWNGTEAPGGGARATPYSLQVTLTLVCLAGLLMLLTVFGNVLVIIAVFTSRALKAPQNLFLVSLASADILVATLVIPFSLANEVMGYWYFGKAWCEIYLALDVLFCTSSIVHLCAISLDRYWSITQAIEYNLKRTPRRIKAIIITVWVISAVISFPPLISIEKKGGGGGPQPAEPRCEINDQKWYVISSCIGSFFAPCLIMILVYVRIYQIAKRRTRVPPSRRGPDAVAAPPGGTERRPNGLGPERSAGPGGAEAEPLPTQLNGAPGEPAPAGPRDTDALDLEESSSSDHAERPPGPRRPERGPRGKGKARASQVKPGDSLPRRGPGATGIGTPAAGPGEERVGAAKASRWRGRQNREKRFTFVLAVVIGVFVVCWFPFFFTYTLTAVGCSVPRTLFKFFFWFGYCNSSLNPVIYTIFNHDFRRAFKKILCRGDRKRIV

hMOR [13] = conditions: read-out: binding affinity at hMOR; cited from earlier work
[14] = target: mouse kappa opioid receptor (mKOR) (Mus musculus, UniProt P33534); assay: Competition binding against 125I-IBNtxA, CHO cell membranes
mDOR [15] = target: T1, mDOR; assay: as above
hH1 = hH1 (Homo sapiens, UniProt P35367); assay: NIMH-PDSP radioligand binding; conditions: read-out: affinity Ki hH1
hSERT = hSERT (Homo sapiens, UniProt P31645); assay: NIMH-PDSP radioligand binding; conditions: read-out: affinity Ki hSERT
hMOR [16] = target: T4, hMOR; assay: NIMH-PDSP radioligand binding; conditions: read-out: affinity Ki hMOR
hMOR [17] = target: T4, hMOR; format: cell-based
hMOR [18] = target: T4, hMOR; format: cell-based; remark: listed apart in the source
hDAT = hDAT (Homo sapiens, UniProt Q01959); assay: NIMH-PDSP radioligand binding; conditions: read-out: affinity Ki hDAT
[19] = i.c.v., MOR KO / KOR KO mice versus WT
[20] = affinity (Ki) mKOR, 125I-IBNtxA (0.1 nM)
[21] = affinity (Ki) mDOR, 125I-IBNtxA (0.1 nM)

Row | Molecule | mDOR Emax (mDOR [1]) | Emax% ± SEM Gi-1 activation hMOR [5] | fold less potent than DAMGO, Gi-1 hMOR [5] | Emax% ± SEM βarrestin-2 recruitment hDOR (hDOR [6]) | Emax% ± SEM Gi-1 activation hDOR (hDOR [7]) | mKOR EC50 (mKOR; [35S]GTPγS) | mKOR Emax (mKOR) | Ki (hKOR [10]) | effect on breath rate (C57BL/6J mice [11]) | pEC50 ± SEM βarrestin-2 recruitment hKOR (hKOR [2]) | Emax% ± SEM βarrestin-2 recruitment hKOR (hKOR [2]; normalized to U50,488H) | EC50 (hKOR [2]) | receptor dependence of antinociception (C57BL/6J mice [3]; [19]) | locomotor effect (C57BL/6J mice [12]) | Ki (hα2A) | pEC50 ± SEM Gi-1 activation hKOR [9] | Emax% ± SEM Gi-1 activation hKOR ([9]; normalized to U50,488H) | EC50 [9] | mMOR Emax (mMOR) | antinociception ED50 (and 95% C.I.) (C57BL/6J mice [3]; i.c.v.) | further results
1 | corynantheidine | no activity | 37% and 37.2 ± 4.30% | 20 fold | < 20% | < 20% | no activity | no activity |  |  |  |  |  |  |  |  |  |  |  |  |  | mDOR EC50 (mDOR [1]; [35S]GTPγS): no activity; Emax% ± SEM βarrestin-2 recruitment hKOR (hKOR [2]): < 20%; fold less potent than DAMGO, [35S]GTPγS (mMOR; mMOR): about 30 fold; mMOR Emax (mMOR; listed as corynanthedine): 74.13 ± 1.24%; maximal antinociception (ceiling effect, % MPE) (C57BL/6J mice [3]; mouse, in vivo): 50%; receptor dependence of antinociception (C57BL/6J mice [3]; mouse, in vivo): MOR dependent; fold higher mMOR affinity than mitragynine ([4]; same binding assay): ~4 fold; Ki (hNMDA): 83 nM; agonist action in guinea pig ileum (MOR): no agonist actions; Emax% ± SEM βarrestin-2 recruitment hMOR (hMOR [8]): < 20%; Emax% ± SEM Gi-1 activation hKOR [9]: < 20%
2 | CC[C@H]1CN2CCc3c([nH]c4cccc(OC)c34)[C@H]2C[C@@H]1/C(=C\OC)C(=O)OC [mitraciliatine] |  |  |  | < 20% |  |  |  | 73 nM | no respiratory depression | 6.42 ± 0.06 | 104% | 383 nM | MOR dependent and, surprisingly, independent of KOR | no significant hyperlocomotion | 2150 nM | 6.57 ± 0.06 | 114.32 ± 2.42% | 269 nM |  |  | effect on breath rate (C57BL/6J mice [11]; listed as Mitraciliatine): increase in breath rates; Emax% ± SEM βarrestin-2 recruitment hKOR (hKOR [2]; normalized to U50,488H, listed as Mitraciliatine): 104.13 ± 2.57%; maximal antinociception (ceiling effect, % MPE) (C57BL/6J mice [3]; i.c.v., WT mice, mitraciliatine at 100 nmol): 67%; Ki (hNET): 6600 nM
3 | CC[C@@H]1CN2CC[C@@]3(C(=O)Nc4ccccc43)[C@@H]2C[C@@H]1/C(=C\OC)C(=O)OC [corynoxine] | no activity |  | 58 fold |  |  | no activity | no activity |  | no depression of breath rate |  |  |  | MOR dependent | did not produce significant hyperlocomotion |  |  |  |  | 136.4 ± 3.3% | 3.43 (0.53–6.41) nmol | effect on breath rate (C57BL/6J mice [11]; listed as Corynoxine): increase in breath rates; Emax (hKOR [2]; HEK-293T, read-out: Emax% ± SEM βarrestin-2 recruitment hKOR): < 20%; EC50 (mMOR): 203 ± 4.4 nM; Emax at 1 µM (mMOR; read-out: mMOR Emax, relative to DAMGO at 1000 nM): 136%; Ki ([4]; affinity (Ki) mMOR): 140 nM and 141 nM; EC50 [5]: 1630 nM; Emax ([5]; HEK-293T, read-out: Emax% ± SEM Gi-1 activation hMOR): 96.5 ± 4.69%; Ki (hMOR [13]): 16.4 nM; Emax (hDOR [6]; HEK-293T, read-out: Emax% ± SEM βarrestin-2 recruitment hDOR): < 20%; Ki [14, 20]: 3.08 ± 1.73 µM; Emax (hDOR [7]; HEK-293T, read-out: Emax% ± SEM Gi-1 activation hDOR): < 20%; Emax (hMOR [8]; HEK-293T, read-out: Emax% ± SEM βarrestin-2 recruitment hMOR): < 20%; Ki (mDOR [15]; [21]): 1270 ± 226 nM; Emax ([9]; HEK-293T, read-out: Emax% ± SEM Gi-1 activation hKOR): < 20%
4 | CN1CC[C@]23c4c5ccc(O)c4O[C@H]2[C@@H](O)C=C[C@H]3[C@H]1C5 [morphine, reference compound] |  |  |  |  |  |  |  |  | significant decrease in breath rate |  |  |  |  | significant locomotor effect |  |  |  |  |  | 4.77 (1.49–28.8) nmol | 
5 | CC[C@@H]1CN2CC[C@]3(C(=O)Nc4ccccc43)[C@@H]2C[C@@H]1/C(=C\OC)C(=O)OC [corynoxine B] | no activity |  |  |  |  |  | no activity |  |  |  |  |  |  |  |  |  |  |  | no activity |  | Ki ([4]; affinity (Ki) mMOR): 5010 ± 388 nM; Ki [14, 20]: > 1 µM; Ki ([14]; affinity (Ki) mKOR, 125I-IBNtxA (0.1 nM), μM): > 10 µM; Ki (mDOR [15]; [21]): 1680 ± 261 nM
6 | C=C[C@H]1CN2CCc3c([nH]c4cccc(OC)c34)[C@H]2C[C@@H]1/C(=C\OC)C(=O)OC [isopaynantheine] | no activity | < 20% |  | < 20% | < 20% |  | 93.5 ± 5% | 27 nM |  | 6.22 ± 0.43 | < 20% | 599 nM | MOR independent and KOR dependent |  | 2150 nM | 6.25 ± 0.066 | 80% | 560 nM | 50 ± 5% |  | EC50 (mMOR; read-out: mMOR EC50, [35S]GTPγS): 192 ± 5.8 nM; Ki (hH1): 206 nM; Ki ([4]; read-out: affinity (Ki) mMOR): 91.8 ± 5.8 nM; Ki (hSERT): 5110 nM; Ki (hMOR [16]): 122 nM; Emax% ± SEM βarrestin-2 antagonism at MOR (hMOR [17]): 106 ± 8.67%; Ki ([14]; read-out: affinity (Ki) mKOR, 125I-IBNtxA (0.1 nM)): 0.325 µM and 0.326 µM; Emax% ± SEM βarrestin-2 recruitment hMOR (hMOR [8]; normalized to DAMGO): < 20%; Ki (mDOR [15]; read-out: affinity (Ki) mDOR, 125I-IBNtxA (0.1 nM)): 823 ± 127 nM; Emax% ± SEM Gi-1 activation hKOR ([9]; normalized to U50,488H, listed as Isopaynantheine): 80.5 ± 2.9%; Emax% ± SEM Gi-1 antagonism at MOR (hMOR [18]): 156.91 ± 13.49%; Ki (hDAT): 5070 nM; EC50 (mKOR; read-out: mKOR EC50, [35S]GTPγS): 282 ± 18 nM
